In US9770451B2, “Composition including ATM inhibitor for reducing cellular senescence and use of the composition” (Samsung Electronics Co., Ltd., priority 2014, dated 2017):

Legend:
[1] = test system: senescent fibroblasts (passage 37); test: Cell proliferation and formation of cell colonies (crystal violet staining); type: cell-based, human; settings: CP-466722; staining after 4 days
Description: A human fibroblast cell line was inoculated into a Dulbecco's Modified Eagle's medium (DMEM) containing 10% fetal bovine serum (FBS), 100 units/ml of penicillin, and 100 μg/ml of streptomycin (wherein these two antibiotics were purchased from Gibro-BRL, Grand Island, N.Y.), and then, cultured in a 5% CO2 incubator at a temperature of 37° C. The fibroblast cell line (i.e., M11 strain) was a cell line derived from the foreskin of a child. When the cells were grown to about 85% confluency in a plate, the cells were subjected to subculture. The early subculture was carried out at a split ratio of 1:4, and the late subculture was carried out at a split ratio of 1:2. When the cell doubling time was 14 days, the cells were considered to be senescent fibroblasts (passages 35 to 37).
To determine the optimal concentration upon the treatment with an ATM-kinase inhibitor KU-60019 (SELLECKCHEM, S1570, salt), the senescent fibroblasts (passage 37) were inoculated into each well of a 6-well plate at a concentration of 2,000 cells/well, and then, KU-60019 was added to each well of the 6-well plate ([…]). In addition, as a negative control group, the cells were cultured under the same conditions as described above, except that a medium used herein contained a dimethyl sulfoxide (DMSO) (0.05 (v/v) %) medium. […]

[2] = test system: progeria senescent fibroblasts (passage 17); test: Lipofuscin autofluorescence (FACS); type: cell-based, human; settings: CP-466722 0.1 μM, 4 weeks
Description: In addition, the amounts of lipofuscin in the cells cultured as described above were measured. The progeria senescent fibroblasts (passage 17) that became senescent in the presence of KU-60019 (0.5 μM) were cultured in a CO2 incubator at a temperature of 37° C. for 4 weeks. The medium was replaced by a fresh medium containing KU-60019 (0.5 μM), once every 4 days. Lipofuscin is characterized by having autofluorescence capability, and in this regard, the cultured cells were irradiated with a wavelength of 488 nm by using a FACSCaliber (Beckton Dickinson), and then, measured with radiation emitted from a wavelength of 520 nm. The results were analyzed using Cell Quest 3.2 software (Beckton Dickinson). FIG. 11 is a graph showing lipofuscin measured in the cells that were cultured in the presence of KU-60019.
In addition, the amounts of lipofuscin in the cells cultured as described above were measured. […] Lipofuscin is characterized by having autofluorescence capability, and in this regard, the cultured cells were irradiated with a wavelength of 488 nm by using a FACSCaliber (Beckton Dickinson), and then, measured with radiation emitted from a wavelength of 520 nm. The results were analyzed using Cell Quest 3.2 software (Beckton Dickinson).

Structure (SMILES): COc1cc2ncnc(-n3nc(-c4ccccn4)nc3N)c2cc1OC [CP-466722, 2-(6,7-dimethoxyquinazolin-4-yl)-5-(pyridin-2-yl)-2H-1,2,4-triazol-3-amine]
- concentration producing best results in the cell proliferation and the formation of cell colonies [1]: 0.1 µM
- amount of lipofuscin vs control [2]: significantly decreased
